Consider seven molecules from article PMC5957530 (FEBS letters, 2017).

T1: cysteine synthase complex (CSC; E. coli CysE in complex with E. coli CysK) (Escherichia coli, UniProt P0A9D4)
T1 sequence (P0A9D4 1-273): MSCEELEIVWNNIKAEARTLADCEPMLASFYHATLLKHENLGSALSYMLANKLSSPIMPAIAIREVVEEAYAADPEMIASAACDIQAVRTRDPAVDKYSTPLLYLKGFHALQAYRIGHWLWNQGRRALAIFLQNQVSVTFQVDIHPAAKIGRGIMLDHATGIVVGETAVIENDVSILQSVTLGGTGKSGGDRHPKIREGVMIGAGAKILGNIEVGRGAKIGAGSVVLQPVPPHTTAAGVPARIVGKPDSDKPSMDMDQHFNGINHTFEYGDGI
T1 sequence (P0ABK5 1-323 partner): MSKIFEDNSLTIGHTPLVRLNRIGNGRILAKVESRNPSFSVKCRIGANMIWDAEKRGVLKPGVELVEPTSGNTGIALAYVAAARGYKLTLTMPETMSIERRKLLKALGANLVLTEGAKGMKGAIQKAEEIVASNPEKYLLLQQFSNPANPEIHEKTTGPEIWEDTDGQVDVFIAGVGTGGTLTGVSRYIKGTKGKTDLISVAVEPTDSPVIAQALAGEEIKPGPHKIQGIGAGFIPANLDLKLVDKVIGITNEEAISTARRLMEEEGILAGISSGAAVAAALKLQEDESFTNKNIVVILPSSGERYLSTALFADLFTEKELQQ

T2: Escherichia coli CysE (Escherichia coli, UniProt P0A9D4)
T2 sequence (P0A9D4 1-273): T1 sequence (P0A9D4 1-273)

B1: Escherichia coli CysE (Escherichia coli K-12) (protein)
chain: T1 sequence (P0A9D4 1-273)
B2: cysteine synthase complex (CSC; E. coli CysE in complex with E. coli CysK) (Escherichia coli K-12) (protein)
chain: T1 sequence (P0A9D4 1-273)
B3: serine acetyltransferase (CysE) from E. coli (enzyme, UniProt P0A9D4 1-273, looked up)
chain: T1 sequence (P0A9D4 1-273)
B4: O-acetylserine sulfhydrylase-A (CysK) from E. coli (enzyme, UniProt P0ABK5 1-323, looked up)
chain: T1 sequence (P0ABK5 1-323 partner)
modifications: bound pyridoxal 5'-phosphate (PLP) cofactor

Read-outs that look alike come from different tables or passages of the source.

Series [1] has as its target T1, cysteine synthase complex (CSC; E. coli CysE in complex with E. coli CysK). In words: L-Ser acetylation steady-state kinetics of CysE in complex with CysK. The conditions noted are these: for apparent kcat: per CysE hexamer.
The target in another series is T2, Escherichia coli CysE. As to the kind of experiment: L-Ser acetylation steady-state kinetics of isolated CysE. The conditions noted are these: for apparent kcat: per CysE hexamer.
A further series has as its system plant CysE. The conditions noted are these: plant CysE in the CSC vs free; cited from earlier work.
The target of a further series is CysK (Escherichia coli, UniProt P0ABK5). As to the kind of experiment: Fluorescence titration of CysK. Format: binding. The conditions noted are these: in the presence of 10 μM L-Cys.
Substrate in series [2]: N[C@@H](CO)C(=O)O
As to the kind of experiment: purified protein, by the assay type. The conditions noted are these: 20.0 °C.

The series “SEC” deals with the molecule itself. As to the kind of experiment: SEC. (In general: In gel filtration, larger molecules generally elute earlier.)
The target of series [3] is B4. In words: inhibition of enzyme activity.
Series [4] deals with B4. In words: other fluorescence titration.

By Kd is commonly meant the free concentration of one partner at which half of the binding sites on the other are occupied at equilibrium, for simple one-to-one binding. In general, Ki refers to the dissociation constant of the complex between target and ligand, obtained from inhibition or displacement. Low values mean higher affinity, high ones lower affinity. Consider `N[C@@H](CO)C(=O)O` [L-Ser, L-serine], for which the values for the Kd (in series [1]; on Escherichia coli CysE) were 600 ± 200 µM and 500 ± 200 µM, respectively. The Ki in series [1] is 16000 ± 5000 µM. Further, the apparent kcat in series [1] (+CysK fivefold molar excess, L-Ser varied, acetyl-CoA […]) was 228 ± 34 s⁻¹; on Escherichia coli CysE (-CysK, L-Ser varied, acetyl-CoA […]), 228 ± 60 s⁻¹. Moreover, the “increase in the L-Ser inhibition constant, CSC vs free CysE” value in series [1] (CysE in complex with CysK) was “four fold”.
For orientation: IC50 means the concentration needed to halve the response being measured. Higher therefore signals lower potency. Take `N[C@@H](CS)C(=O)O` [L-Cys, L-cysteine]: the “fold increase of L-Cys Ki of plant CysE in the CSC” value in the series on plant CysE is reported as “more than 35 fold”. In addition, in the series with plant CysE, the “increase in L-Cys IC50 of plant CysE in the CSC” value is on record as “fourfold”. Moreover, the IC50 in series [1] is 0.7 µM; on Escherichia coli CysE (IC50 for L-Cys, free CysE), 0.18 µM; against Escherichia coli CysE (L-Cys concentration around the IC50, 0.1 mM L-Ser (physiological), Fig. S5B), roughly 0.07 µM; on Escherichia coli CysE (L-Cys concentration around the IC50, 20 mM L-Ser (saturating), Fig. S5B) it was roughly 0.5 µM. Besides, the “increase of L-Cys IC50 in the CSC vs free CysE” value in series [1] (presence of molar excess CysK) is “fourfold”. Moreover, the “fold increase in the dissociation constant of the CSC” value at CysK is reported as 10 fold.
A word on the Km: it is the concentration of substrate that gives half-maximal velocity. `CC(=O)SCCNC(=O)CCNC(=O)[C@H](O)C(C)(C)COP(=O)(O)OP(=O)(O)OC[C@H]1O[C@@H](n2cnc3c(N)ncnc32)[C@H](O)[C@@H]1OP(=O)(O)O` [Acetyl-CoA, acetyl-CoA]: the apparent kcat in series [1] (+CysK fivefold molar excess, acetyl-CoA varied, L-Ser 20 mM) was 416 ± 38 s⁻¹; at Escherichia coli CysE (-CysK, acetyl-CoA varied, L-Ser 20 mM) it was 306 ± 35 s⁻¹. In addition, the Km in series [1] (read-out: KM,acCoA, +CysK fivefold molar excess, global fit Eqn 2) was 300 ± 100 µM; at Escherichia coli CysE (read-out: KM,acCoA, -CysK, global fit Eqn 2), 300 ± 100 µM; at Escherichia coli CysE (read-out: apparent KM, -CysK, acetyl-CoA varied, L-Ser 20 mM, 20 °C), 1400 ± 400 µM. Further, the equilibrium dissociation constant (Kd) in series [1] (read-out: Kd,acCoa, +CysK fivefold molar excess, global fit Eqn 2) amounted to 100 ± 100 µM; at Escherichia coli CysE (read-out: Kd,acCoa, -CysK, dissociation from unligated enzyme, global fit Eqn 2) it was 100 ± 100 µM.
As to B1, the Km in series [2] (other: -CysK, L-Ser varied, acetyl-CoA […]) came out at 1700 ± 700 µM; in series [2] (other: -CysK, global fit, random-order mechanism (Eqn 2)), 1300 ± 200 µM.
B2: the Km came out at 1100 ± 400 µM in series [2] (other: +CysK fivefold molar excess, L-Ser varied, acetyl-CoA […]) and 1200 ± 200 µM in series [2] (other: +CysK fivefold molar excess, global fit Eqn 2).
As usually defined, the stoichiometry N is a count of units in the complex or per binding partner. As to B3, the “stoichiometry N” value was 6 in the series “SEC” and ~1.6 CysE:CysK in series [4]. Also, in series [3], the Ki app was 0.0087 ± 0.001 µM.
In the case of B4, the “stoichiometry N” value in the series “SEC” was 2.
